Experimental data published in PMC11274883, “Anticancer Effect of Pt^[sequence], Pt^II5MESS, Pt^II56MESS and Their Platinum(IV)-Dihydroxy Derivatives against Triple-Negative Breast Cancer and Cisplatin-Resistant Colorectal Cancer” (Cancers, 2024).

Legend:
Type in all cases: cell-based
HT29 cells [1] = experiment: TMRE mitochondrial membrane potential assay; conditions: complexes at IC50, FCCP 20 µM
Procedure, shortened: (§1)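 Cells treated with each complex at its IC50 concentration for 24, 48 or 72 h, then stained with 1 µM TMRE for 30 min and washed before fluorescence scanning. Three independent experiments in triplicate.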

MDA−MB−231 cells [2] = experiment: TMRE mitochondrial membrane potential assay; conditions: complexes at IC50, FCCP 20 µM
Procedure, shortened: as §1

HT29 cells [3] = experiment: Western blot protein expression; conditions: HT29, IC50, 72 h
Procedure, shortened: (§2)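 Cells were lysed in RIPA buffer with orthovanadate, and 20 µg protein was run on SDS-PAGE, transferred to PVDF and probed for proliferation, apoptosis, microtubule and autophagy markers. ECL band intensities were normalised to GAPDH and then to untreated control. Three independent experiments were run per marker.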

MDA−MB−231 cells [4] = experiment: Western blot protein expression; conditions: MDA−MB−231, IC50, 72 h
Procedure, shortened: as §2

HT29 cells [5] = experiment: Cellular localisation of Pt (fractionation, ICP-MS); conditions: HT29, 3 µM, 24 h
Experimental: (§3) MDA−MB−231 and HT29 cells were seeded at a final concentration of 10^6 cells/well in 6-well plates and incubated overnight. Cells were then treated with 3 µM of either Pt^II or Pt^IV complexes for 24 h. The media was next removed, and cells were washed three times with ice-cold PBS. Then the cells were trypsinised. The isolation of individual fractions was carried out using the Fraction-PREP Cell Fractionation kit (ab288085, Abcam, Cambridge, MA, USA). The cell pellet was resuspended in ice-cold PBS and moved to Eppendorf tubes to spin for 5 min at 700× g and supernatant was removed. The pellet was then resuspended in 400 µL of cytosol extraction buffer mix and incubated for 20 min on ice. Next, samples were centrifuged at 700× g for 10 min and the supernatant was collected as the cytosolic fraction. The pellet was then resuspended in 400 µL of ice-cold membrane A extraction buffer mix and vortexed for 10 s, after which membrane B extraction buffer mix was added and incubated on ice for 1 min. The sample was then vortexed and centrifuged for 5 min at 1000× g. […] The pellet was then resuspended in 200 µL of ice-cold nuclear extraction buffer, vortexed for 20 s and then incubated on ice for 40 min with constant vortexing every 10 min. The samples were then centrifuged for 10 min at maximum speed. […] Platinum cell localisation was then measured via ICP-MS, as described in Section 2.5.

MDA−MB−231 cells [6] = experiment: as above; conditions: MDA−MB−231, 3 µM, 24 h
Experimental: as §3

[7] = representative blot Figure S30G
[8] = representative blot Figure S30H

N.N.[Cl][Pt][Cl] [Cisplatin, cisplatin]
MtMp (mitochondrial membrane potential) (HT29 cells [1]; HT29, 24 h): 270.02 RFU | MtMp (mitochondrial membrane potential) (HT29 cells [1]; HT29, 48 h): 237.68 RFU | MtMp (mitochondrial membrane potential) (HT29 cells [1]; HT29, 72 h): 188.59 RFU | MtMp (mitochondrial membrane potential) (MDA−MB−231 cells [2]; MDA−MB−231, 24 h): 208.24 RFU | MtMp (mitochondrial membrane potential) (MDA−MB−231 cells [2]; MDA−MB−231, 48 h): 177.91 RFU | MtMp (mitochondrial membrane potential) (MDA−MB−231 cells [2]; MDA−MB−231, 72 h): 154.83 RFU | β-actin/GAPDH normalized to control (1) (HT29 cells [3]; representative blot Figure S28A): 0.6345 | β-tubulin/GAPDH normalized to control (1) (HT29 cells [3]; representative blot Figure S28B): 0.8003 | α-tubulin/GAPDH normalized to control (1) (HT29 cells [3]; representative blot Figure S28C): 0.8201 | p-AKT/AKT/GAPDH normalized to control (1) (HT29 cells [3]; representative blot Figure S29A): 0.288 | p-ERK/ERK/GAPDH normalized to control (1) (HT29 cells [3]; representative blot Figure S29B): 1.125 | p53/GAPDH normalized to control (1) (HT29 cells [3]; representative blot Figure S29C): 0.9507 | p21/GAPDH normalized to control (1) (HT29 cells [3]; representative blot Figure S29D): 2.964 | Bax/GAPDH normalized to control (1) (HT29 cells [3]; representative blot Figure S30A): 1.81 | Bcl2/GAPDH normalized to control (1) (HT29 cells [3]; representative blot Figure S30B): 0.5659 | Cyt C/GAPDH normalized to control (1) (HT29 cells [3]; representative blot Figure S30C): 2.419 | Procaspase 8/GAPDH normalized to control (1) (HT29 cells [3]; representative blot Figure S30D): 0.004029 | Cleaved BID/GAPDH normalized to control (1) (HT29 cells [3]; representative blot Figure S30E): 2.527 | Procaspase 9/GAPDH normalized to control (1) (HT29 cells [3]; representative blot Figure S30F): 0.6388 | Cleaved caspase 3/GAPDH normalized to control (1) (HT29 cells [3]; [7]): 11.81 | Procaspase 3/GAPDH normalized to control (1) (HT29 cells [3]; [7]): 1.2 | Cleaved PARP-1/GAPDH normalized to control (1) (HT29 cells [3]; [8]): 3.484 | PARP-1/GAPDH normalized to control (1) (HT29 cells [3]; [8]): 0.8236 | Beclin1/GAPDH normalized to control (1) (HT29 cells [3]; representative blot Figure S31A): 3.89 | ATG5/GAPDH normalized to control (1) (HT29 cells [3]; representative blot Figure S31B): 1.193 | ATG16L1/GAPDH normalized to control (1) (HT29 cells [3]; representative blot Figure S31C): 1.173 | ATG9A/GAPDH normalized to control (1) (HT29 cells [3]; representative blot Figure S31D): 2.212 | ATG4B/GAPDH normalized to control (1) (HT29 cells [3]; representative blot Figure S31E): 1.101 | LC3B/GAPDH normalized to control (1) (HT29 cells [3]; representative blot Figure S31F): 3.233 | LC3B protein expression level increase (MDA−MB−231 cells [4]; Figure 12D): up to 3 folds | β-actin/GAPDH normalized to control (1) (MDA−MB−231 cells [4]; representative blot Figure S24A): 0.5805 | β-tubulin/GAPDH normalized to control (1) (MDA−MB−231 cells [4]; representative blot Figure S24B): 1.195 | α-tubulin/GAPDH normalized to control (1) (MDA−MB−231 cells [4]; representative blot Figure S24C): 0.9486 | p-AKT/AKT/GAPDH normalized to control (1) (MDA−MB−231 cells [4]; representative blot Figure S25A): 0.6181 | p-ERK/ERK/GAPDH normalized to control (1) (MDA−MB−231 cells [4]; representative blot Figure S25B): 0.2123 | p53/GAPDH normalized to control (1) (MDA−MB−231 cells [4]; representative blot Figure S25C): 1.585 | p21/GAPDH normalized to control (1) (MDA−MB−231 cells [4]; representative blot Figure S25D): 1.351 | Bax/GAPDH normalized to control (1) (MDA−MB−231 cells [4]; representative blot Figure S26A): 1.836 | Bcl2/GAPDH normalized to control (1) (MDA−MB−231 cells [4]; representative blot Figure S26B): 0.7529 | Cytochrome C/GAPDH normalized to control (1) (MDA−MB−231 cells [4]; representative blot Figure S26C): 2.371 | Procaspase 8/GAPDH normalized to control (1) (MDA−MB−231 cells [4]; representative blot Figure S26D): 0.5682 | Cleaved BID/GAPDH normalized to control (1) (MDA−MB−231 cells [4]; representative blot Figure S26E): 11.07 | Procaspase 9/GAPDH normalized to control (1) (MDA−MB−231 cells [4]; representative blot Figure S26F): 1.122 | Procaspase 3/GAPDH normalized to control (1) (MDA−MB−231 cells [4]; representative blot Figure S26G): 0.8253 | PARP-1/GAPDH normalized to control (1) (MDA−MB−231 cells [4]; representative blot Figure S26H): 0.7867 | Beclin1/GAPDH normalized to control (1) (MDA−MB−231 cells [4]; representative blot Figure S27A): 0.9211 | ATG5/GAPDH normalized to control (1) (MDA−MB−231 cells [4]; representative blot Figure S27B): 0.8216 | ATG16L1/GAPDH normalized to control (1) (MDA−MB−231 cells [4]; representative blot Figure S27C): 0.9512 | ATG9A/GAPDH normalized to control (1) (MDA−MB−231 cells [4]; representative blot Figure S27D): 0.6551 | ATG4B/GAPDH normalized to control (1) (MDA−MB−231 cells [4]; representative blot Figure S27E): 1.551 | LC3B/GAPDH normalized to control (1) (MDA−MB−231 cells [4]; representative blot Figure S27F): 1.368 | subcellular fraction with main platinum accumulation (HT29 cells [5]): membrane/particulate fraction | subcellular fraction with main platinum accumulation (MDA−MB−231 cells [6]): membrane/particulate fraction
